For orientation: IC50 means the concentration that inhibits the measured activity by half.

The target of assay [1] is T1, Acetylcholine receptor subunit beta-like 2 (Drosophila melanogaster, UniProt P25162).
T1 sequence (P25162 whole entry): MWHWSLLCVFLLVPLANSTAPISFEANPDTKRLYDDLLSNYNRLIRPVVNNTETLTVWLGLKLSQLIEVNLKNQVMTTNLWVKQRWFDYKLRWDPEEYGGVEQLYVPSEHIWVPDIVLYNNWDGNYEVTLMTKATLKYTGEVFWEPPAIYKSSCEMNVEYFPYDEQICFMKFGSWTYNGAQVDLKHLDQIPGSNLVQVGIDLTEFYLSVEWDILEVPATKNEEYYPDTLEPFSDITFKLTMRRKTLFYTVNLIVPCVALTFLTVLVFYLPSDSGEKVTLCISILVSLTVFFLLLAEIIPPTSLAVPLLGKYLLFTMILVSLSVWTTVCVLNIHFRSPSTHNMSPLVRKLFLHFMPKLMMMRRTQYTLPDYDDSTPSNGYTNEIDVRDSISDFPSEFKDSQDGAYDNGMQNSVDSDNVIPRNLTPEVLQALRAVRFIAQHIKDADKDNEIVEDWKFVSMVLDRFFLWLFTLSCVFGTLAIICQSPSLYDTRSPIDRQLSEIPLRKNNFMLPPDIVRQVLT
Briefly: Displacement of [3H]IMI from nicotinic acetylcholine receptor in Drosophila melanogaster head membrane after 90 min by filter binding assay.

The target in assay [2] is T2, Nicotinic acetylcholine receptor alpha 5 subunit (Musca domestica, UniProt A9XFY4).
T2 sequence (A9XFY4 whole entry): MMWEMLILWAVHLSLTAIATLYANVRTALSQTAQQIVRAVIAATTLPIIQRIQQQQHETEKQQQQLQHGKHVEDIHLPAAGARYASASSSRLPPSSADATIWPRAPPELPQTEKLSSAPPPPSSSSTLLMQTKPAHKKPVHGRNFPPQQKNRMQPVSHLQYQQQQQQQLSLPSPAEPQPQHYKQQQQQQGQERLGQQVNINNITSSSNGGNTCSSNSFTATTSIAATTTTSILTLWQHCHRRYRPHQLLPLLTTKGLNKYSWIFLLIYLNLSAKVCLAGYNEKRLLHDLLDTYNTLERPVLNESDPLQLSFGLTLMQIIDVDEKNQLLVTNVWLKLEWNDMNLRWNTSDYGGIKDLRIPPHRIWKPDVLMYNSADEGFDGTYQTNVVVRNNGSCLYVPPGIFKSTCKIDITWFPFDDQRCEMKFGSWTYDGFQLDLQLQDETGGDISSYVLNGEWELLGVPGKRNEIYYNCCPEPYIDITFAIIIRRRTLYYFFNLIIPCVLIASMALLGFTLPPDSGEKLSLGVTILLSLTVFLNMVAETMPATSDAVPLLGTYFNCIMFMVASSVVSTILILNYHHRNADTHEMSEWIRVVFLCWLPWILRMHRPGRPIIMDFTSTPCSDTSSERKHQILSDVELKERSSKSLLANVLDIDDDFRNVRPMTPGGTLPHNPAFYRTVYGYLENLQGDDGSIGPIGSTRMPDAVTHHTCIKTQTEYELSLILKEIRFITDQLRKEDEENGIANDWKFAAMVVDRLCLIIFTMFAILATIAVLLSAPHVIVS
Briefly: Displacement of [3H]IMI from nicotinic acetylcholine receptor in Musca domestica (house fly) head membrane after 90 min by filter binding assay. (In a radioligand displacement assay an active substance lowers the binding of a labelled ligand.)

Assay [3] can be described thus: Displacement of [3H]IMI from nicotinic acetylcholine receptor in Myzus persicae (green peach aphid) whole body membrane after 90 min by filter binding assay.
The target of assay [4] is T3, Acetylcholine receptor subunit beta-like 2 (Drosophila melanogaster) (UniProt P25162).
T3 sequence (whole entry): T1 sequence (P25162 whole entry)
Briefly: Competitive inhibition of nicotinic acetylcholine receptor in Drosophila melanogaster head membrane using [3H]IMI as substrate incubated for 5 min prior to substrate addition measured after 90 min by Sctachard plot analysis.

Another assay concerns Myzus persicae. The assay is described as follows: Competitive inhibition of nicotinic acetylcholine receptor in Myzus persicae (green peach aphid) whole body membrane using [3H]IMI as substrate incubated for 5 min prior to substrate addition measured after 90 min by Sctachard plot analysis.

Active and inactive are the calls of the source. No cut-off for these calls is given here.

`C/N=C(\NCc1ccc(Cl)nc1)N[N+](=O)[O-]`: the IC50 came to 0.0074 µM in assay [1], 0.0071 µM in assay [2] and 0.015 µM in assay [3].
With `CN1CN(C)/C(=N\[N+](=O)[O-])N(Cc2cnc(Cl)s2)C1`, the IC50 in assay [1] and in assay [3] was > 1 µM throughout.
With `CCN(Cc1cnc(Cl)s1)/C(=C/[N+](=O)[O-])NC`, the IC50 in assay [1] was 0.16 µM; in assay [3], 0.15 µM.
Taken in the same sequence, the figures for `CN1CN(C)/C(=N\[N+](=O)[O-])N(Cc2ccc(Cl)nc2)C1` were > 1 µM and > 1 µM.
On the same counts, the results for `C/C(=N\C#N)N(C)Cc1cnc(Cl)s1` are 0.154 µM and 0.065 µM.
Taken in the same sequence, the figures for `N#C/N=C1\SCCN1Cc1cnc(Cl)s1` were 0.094 µM and 0.056 µM.
As to `O=[N+]([O-])/N=C1\NCOCN1Cc1ccc(Cl)nc1`, the IC50 in assay [1] came to 0.022 µM; in assay [2] it was 0.014 µM; in assay [3] it was 0.013 µM.
In the case of `O=[N+]([O-])C=C1NCCCS1`, the IC50 in assay [1] worked out at 4.7 µM; in assay [3] it was 3.5 µM.
On the same counts, the results for `C/C(=N\C#N)N(C)Cc1ccc(Cl)nc1` [ACETAMIPRID] are 0.0083 µM and 0.01 µM.
With `CN/C(=N\[N+](=O)[O-])NCc1cnc(Cl)s1` [CLOTHIANIDINE], the inhibition result (in assay [4]; with Myzus persicae) was “Active” throughout. For the same molecule, the IC50 in assay [1] came out at 0.0022 µM; in assay [2], 0.0018 µM; in assay [3], 0.0092 µM.
`O=[N+]([O-])/N=C1\NCOCN1Cc1cnc(Cl)s1` [DESMETHYLTHIAMETHOXAM]: the inhibition result (in assay [4]; with Myzus persicae) was “Active” each time. For the same molecule, the IC50 in assay [1] worked out at 0.02 µM; in assay [2] it was 0.016 µM; in assay [3], 0.01 µM.
Turning to `CN/C(=N/CC1CCOC1)N[N+](=O)[O-]` (stereo unspecified) [DINOTEFURAN], the IC50 in assay [1] amounted to 5 µM.
For `O=[N+]([O-])/N=C1\NCCN1Cc1ccc(Cl)nc1` [IMIDACLOPRID], the values for the concentration for half-maximal inhibition (IC50) in assay [1], in assay [2] and in assay [3] were 0.0023 µM, 0.0026 µM and 0.0031 µM, respectively.
Taken in the same sequence, the figures for `O=[N+]([O-])/N=C1\NCCN1Cc1cnc(Cl)s1` [IMIDACLOTHIZ] were 0.017 µM, 0.012 µM and 0.021 µM.
For the molecule `CCN(Cc1ccc(Cl)nc1)/C(=C/[N+](=O)[O-])NC` [NITENPYRAM], the IC50 in assay [1] was determined as 0.011 µM; in assay [3], 0.021 µM.
Take `N#C/N=C1\SCCN1Cc1ccc(Cl)nc1` [THIACLOPRID]: the IC50 amounted to 0.0075 µM in assay [1] and 0.0034 µM in assay [3].

(Values after ChEMBL document CHEMBL3045369 (J Neurochem, 2000).)
